Laboratory results as given in ChEMBL document CHEMBL4393664, “2,4-Disubstituted quinazolines targeting breast cancer cells via EGFR-PI3K” (Eur J Med Chem, 2019).
The source made the active and inactive calls. No cut-off for these calls is given here.

Legend:
MCF7 [1] = test: Effect on total EGFR protein level in human MCF7 cells up to 12 uM after 8 hrs by Western blot analysis; assay type: ADME, cell-based; details: mcf7, 8 h
MCF7 [2] = test: Induction of apoptosis in human MCF7 cells assessed as late apoptotic cells at 4uM after 48 hrs by Annexin-V-FITC/propidium iodide staining based flow cytometry (reference value: 4.28%); assay type: functional
MDA-MB-231 [3] = test: Inhibition of colony formation in human MDA-MB-231 cells at 9 uM after 7 days by crystal violet staining based microscopic analysis; assay type: functional, cell-based
MDA-MB-231 [4] = test: Cell cycle arrest in human MDA-MB-231 cells assessed as accumulation at S phase at 3 uM after 24 hrs by propidium iodide/RNase A staining-based flow cytometric analysis (reference value: 23.07%); assay type: functional
MCF7 [5] = test: Induction of apoptosis in human MCF7 cells assessed as increase in nuclear lysis up to 8 uM after 48 hrs by DAPI staining-based fluorescence microscopic method; assay type: functional, cell-based
MCF7 [6] = test: Cell cycle arrest in human MCF7 cells assessed as accumulation at S phase at 6 uM after 24 hrs by propidium iodide/RNase A staining-based flow cytometric analysis (reference value: 17.17%); assay type: functional
MCF7 [7] = test: Antimigratory activity against human MCF7 cells assessed as reduction in scratch healing after 72 hrs by microscopy based scratch wound assay; assay type: functional, cell-based
MDA-MB-231 [8] = test: Effect on total PI3K protein level in human MDA-MB-231 cells up to 12 uM after 8 hrs by Western blot analysis; assay type: ADME, cell-based; details: mda-mb-231, 8 h
MDA-MB-231 [9] = test: Induction of apoptosis in human MDA-MB-231 cells assessed as late apoptotic cells at 2 uM after 48 hrs by Annexin-V-FITC/propidium iodide staining based flow cytometry (reference value: 2.38%); assay type: functional
MCF7 [10] = test: Induction of apoptosis in human MCF7 cells after 48 hrs by Annexin-V-FITC/propidium iodide staining based flow cytometry; assay type: functional, cell-based
MDA-MB-231 [11] = test: Effect on total AKT protein level in human MDA-MB-231 cells up to 12 uM after 8 hrs by Western blot analysis; assay type: ADME, cell-based; details: mda-mb-231, 8 h
MCF7 [12] = test: Cell cycle arrest in human MCF7 cells assessed as accumulation at G2 phase at 6 uM after 24 hrs by propidium iodide/RNase A staining-based flow cytometric analysis (reference value: 30.62%); assay type: functional
MGC-803 = test: Cytotoxicity against human MGC803 cells assessed as reduction in cell viability after 72 hrs by MTT assay; assay type: functional, cell-based; details: MGC-803, 72 h
PC-3 = test: Cytotoxicity against human PC3 cells assessed as reduction in cell viability after 72 hrs by MTT assay; assay type: functional, cell-based; details: PC-3, 72 h
MDA-MB-231 [13] = test: Cytotoxicity against human MDA-MB-231 cells assessed as reduction in cell viability after 72 hrs by MTT assay; assay type: functional, cell-based; details: MDA-MB-231, 72 h
MDA-MB-231 [14] = test: Induction of apoptosis in human MDA-MB-231 cells assessed as downregulation of Bcl-2 protein expression at 3 to 12 uM after 48 hrs by Western blot analysis; assay type: functional, cell-based
MCF7 [15] = test: Induction of apoptosis in human MCF7 cells assessed as late apoptotic cells at 2 uM after 48 hrs by Annexin-V-FITC/propidium iodide staining based flow cytometry (reference value: 4.28%); assay type: functional
MDA-MB-231 [16] = test: Induction of apoptosis in human MDA-MB-231 cells after 48 hrs by Annexin-V-FITC/propidium iodide staining based flow cytometry; assay type: functional, cell-based
MDA-MB-231 [17] = test: Induction of apoptosis in human MDA-MB-231 cells assessed as viable cells at 2 uM after 48 hrs by Annexin-V-FITC/propidium iodide staining based flow cytometry (reference value: 92.1%); assay type: functional; details: MDA-MB-231, 48 h, read-out: Activity
MDA-MB-231 [18] = test: Induction of apoptosis in human MDA-MB-231 cells assessed as late apoptotic cells at 4 uM after 48 hrs by Annexin-V-FITC/propidium iodide staining based flow cytometry (reference value: 2.38%); assay type: functional
MDA-MB-231 [19] = test: Cell cycle arrest in human MDA-MB-231 cells assessed as accumulation at G2 phase at 6 uM after 24 hrs by propidium iodide/RNase A staining-based flow cytometric analysis (reference value: 27.76%); assay type: functional
[20] = biological target: Epidermal growth factor receptor (Homo sapiens) (UniProt P00533); test: Inhibition of EGFR phosphorylation at Y1068 residues in human MDA-MB-231 cells after 8 hrs by Western blot analysis; assay type: cell-based
Chain of Epidermal growth factor receptor (Homo sapiens) (P00533 whole entry): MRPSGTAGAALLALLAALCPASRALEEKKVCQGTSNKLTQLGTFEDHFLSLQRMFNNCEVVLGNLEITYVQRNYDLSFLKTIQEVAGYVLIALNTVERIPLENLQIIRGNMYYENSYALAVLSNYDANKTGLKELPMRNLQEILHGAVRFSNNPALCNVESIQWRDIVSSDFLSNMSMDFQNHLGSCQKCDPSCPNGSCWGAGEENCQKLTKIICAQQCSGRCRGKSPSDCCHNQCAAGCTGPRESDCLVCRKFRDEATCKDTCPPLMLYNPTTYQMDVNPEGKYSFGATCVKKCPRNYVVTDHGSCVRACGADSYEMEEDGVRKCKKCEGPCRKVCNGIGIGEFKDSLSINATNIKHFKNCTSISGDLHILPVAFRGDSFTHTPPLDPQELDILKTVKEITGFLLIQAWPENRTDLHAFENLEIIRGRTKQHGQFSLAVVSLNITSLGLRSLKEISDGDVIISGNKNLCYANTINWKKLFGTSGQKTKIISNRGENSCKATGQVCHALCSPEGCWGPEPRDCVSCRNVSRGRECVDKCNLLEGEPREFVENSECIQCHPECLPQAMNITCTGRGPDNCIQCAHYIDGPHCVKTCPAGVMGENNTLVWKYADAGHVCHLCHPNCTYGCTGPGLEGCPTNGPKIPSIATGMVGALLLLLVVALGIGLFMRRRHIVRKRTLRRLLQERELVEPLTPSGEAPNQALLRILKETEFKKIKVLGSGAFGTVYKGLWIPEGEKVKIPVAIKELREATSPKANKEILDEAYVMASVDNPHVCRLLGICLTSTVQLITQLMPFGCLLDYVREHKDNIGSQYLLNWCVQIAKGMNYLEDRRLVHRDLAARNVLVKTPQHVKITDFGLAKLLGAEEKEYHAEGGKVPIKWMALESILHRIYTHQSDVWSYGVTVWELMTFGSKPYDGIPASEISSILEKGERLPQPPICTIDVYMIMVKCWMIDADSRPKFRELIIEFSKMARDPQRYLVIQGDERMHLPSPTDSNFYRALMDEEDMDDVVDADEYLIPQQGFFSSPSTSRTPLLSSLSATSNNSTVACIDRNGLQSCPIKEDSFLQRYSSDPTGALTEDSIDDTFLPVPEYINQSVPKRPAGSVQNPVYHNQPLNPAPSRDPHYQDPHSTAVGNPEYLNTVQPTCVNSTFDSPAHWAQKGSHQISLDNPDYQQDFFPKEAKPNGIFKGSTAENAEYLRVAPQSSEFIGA

MCF7 [21] = test: Antiproliferative activity against human MCF7 cells assessed as reduction in cell viability up to 32 uM by MTT assay; assay type: functional, cell-based; details: TDE = time-dependent effect
[22] = biological target: Epidermal growth factor receptor (Homo sapiens) (UniProt P00533); test: Inhibition of EGFR phosphorylation at Y992 residues in human MDA-MB-231 cells after 8 hrs by Western blot analysis; assay type: cell-based
MCF7 [23] = test: Induction of apoptosis in human MCF7 cells assessed as early apoptotic cells at 2 uM after 48 hrs by Annexin-V-FITC/propidium iodide staining based flow cytometry (reference value: 3.05%); assay type: functional
MCF7 [24] = test: Induction of apoptosis in human MCF7 cells assessed as necrotic cells at 4 uM after 48 hrs by Annexin-V-FITC/propidium iodide staining based flow cytometry (reference value: 1.57%); assay type: functional
MCF7 [25] = test: Cell cycle arrest in human MCF7 cells assessed as accumulation at S phase at 12 uM after 24 hrs by propidium iodide/RNase A staining-based flow cytometric analysis (reference value: 17.17%); assay type: functional
MCF7 [26] = test: Cell cycle arrest in human MCF7 cells assessed as accumulation at G1 phase at 6 uM after 24 hrs by propidium iodide/RNase A staining-based flow cytometric analysis (reference value: 52.21%); assay type: functional
MCF7 [27] = test: Induction of apoptosis in human MCF7 cells assessed as early apoptotic cells at 6 uM after 48 hrs by Annexin-V-FITC/propidium iodide staining based flow cytometry (reference value: 3.05%); assay type: functional
MCF7 [28] = test: Cell cycle arrest in human MCF7 cells assessed as accumulation at G2 phase at 3 uM after 24 hrs by propidium iodide/RNase A staining-based flow cytometric analysis (reference value: 30.62%); assay type: functional
MDA-MB-231 [29] = test: Effect on total EGFR protein level in human MDA-MB-231 cells up to 12 uM after 8 hrs by Western blot analysis; assay type: ADME, cell-based; details: mda-mb-231, 8 h
MDA-MB-231 [30] = test: Antiproliferative activity against human MDA-MB-231 cells assessed as reduction in cell viability up to 32 uM by MTT assay; assay type: functional, cell-based; details: TDE = time-dependent effect
MCF7 [31] = test: Effect on total AKT protein level in human MCF7 cells up to 12 uM after 8 hrs by Western blot analysis; assay type: ADME, cell-based; details: mcf7, 8 h
MCF7 [32] = test: Induction of apoptosis in human MCF7 cells assessed as viable cells at 2 uM after 48 hrs by Annexin-V-FITC/propidium iodide staining based flow cytometry (reference value: 91.1%); assay type: functional; details: MCF7, 48 h, read-out: Activity
[33] = biological target: Epidermal growth factor receptor (Homo sapiens) (UniProt P00533); test: Inhibition of EGFR phosphorylation at Y1045 residues in human MCF7 cells after 8 hrs by Western blot analysis; assay type: cell-based
MDA-MB-231 [34] = test: Cell cycle arrest in human MDA-MB-231 cells assessed as accumulation at G2 phase at 12 uM after 24 hrs by propidium iodide/RNase A staining-based flow cytometric analysis (reference value: 27.76%); assay type: functional
MDA-MB-231 [35] = test: Induction of apoptosis in human MDA-MB-231 cells assessed as increase in p53 expression at 3 to 12 uM after 48 hrs by Western blot analysis; assay type: functional, cell-based

In the case of `FC(F)(F)c1ccc(CSc2nc(Nc3ccc(C(F)(F)F)cc3)c3ccccc3n2)cc1`, the Activity (MCF7 [1]) is reported as “Non-Toxic”, the Activity (MCF7 [2]) is reported as 7.49% and the “growth inhibition (GI)” value (MDA-MB-231 [3]) is reported as “Active”. The Activity (MDA-MB-231 [4]) was 18.96%, the Activity (MCF7 [5]) was “Active” and the Activity (MCF7 [6]) was 19.52%. The Activity (MCF7 [7]) was “Dose-dependent effect”, the Activity (MDA-MB-231 [8]) was “Non-Toxic” and the Activity (MDA-MB-231 [9]) was 7.92%. For the same compound, the Activity (MCF7 [10]) was “Dose-dependent effect”, the Activity (MDA-MB-231 [11]) was “Non-Toxic” and the Activity (MCF7 [12]) was 15.43%. The IC50 (MGC-803) was 6.17 µM, the IC50 (PC-3) was 7.88 µM and the IC50 (MDA-MB-231 [13]) was 5.46 µM. The Activity (MDA-MB-231 [14]) was “Active”, the Activity (MCF7 [15]) was 4.26% and the Activity (MDA-MB-231 [16]) was “Dose-dependent effect”. For the same compound, the viability at 2 µM (MDA-MB-231 [17]) was 82.9%, the Activity (MDA-MB-231 [18]) was 15.3% and the Activity (MDA-MB-231 [19]) was 21.98%. The inhibition [20] was “Dose-dependent effect”, the Activity (MCF7 [21]) was “Tde” and the inhibition [22] was “Dose-dependent effect”. It also gave an Activity (MCF7 [23]) of 11.4%, an Activity (MCF7 [24]) of 1.28% and an Activity (MCF7 [25]) of 10.65%. For the same compound, the Activity (MCF7 [26]) was 65.05%, the Activity (MCF7 [27]) was 17.1% and the Activity (MCF7 [28]) was 20.38%. The Activity (MDA-MB-231 [29]) was “Non-Toxic”, the Activity (MDA-MB-231 [30]) was “Tde” and the Activity (MCF7 [31]) was “Non-Toxic”. The viability at 2 µM (MCF7 [32]) was 81.1%, the inhibition [33] was “Dose-dependent effect” and the Activity (MDA-MB-231 [34]) was 11.69%. The Activity (MDA-MB-231 [35]) was “Active”.
